{
  "source": "paper PMC13144739",
  "about": "“Global analysis of cancer cell responses to USP9X inhibition” (The EMBO Journal, 2026)",
  "key": {"MOLT-4 cells": {"system": "MOLT-4 cells", "assay": "NCI-60 cancer cell panel, MOLT-4", "type": "cell-based, human", "conditions": "10 µM, 3 days", "procedure": "Inhibitors were tested at 10 µM. Data shown is the mean of two technical replicates and is shown relative to the no-drug control, and relative to the time zero number of cells."}, "UO-31 cells": {"system": "UO-31 cells", "assay": "Lattice light sheet imaging, UO-31", "type": "cell-based, human", "conditions": "15 µM, imaged 24-48 h", "procedure": "(§1) MDA-MB-231, MiaPaca2, HMEC-1, SK-MEL-2 and UO-31 cells were seeded at 2–15 × 10^4 cells/mL in 8-well glass µ-slides (ibidi). […] SPY650-Tubulin, SPY555-DNA (both Spirochrome, Inc.), and Annexin V FITC (Sigma-Aldrich) were added at a final concentration of 1 in 1000. Cells were left to grow for 24 h before time-lapse live-cell data were acquired using a Lattice Light Sheet 7 (Zeiss). […] Aberration correction was set to a value of 170 to minimise aberrations as determined by imaging the Point Spread Function using 100 nm fluorescent microspheres. Data were collected with a frame time of 10 ms and a z step of 0.4 μm with 834 frames per 290 μm by 290 μm. Individual regions were imaged in parallel across six wells of the eight-well chamber slide. Data are presented as Maximum Intensity Projections (MIPs), and these MIPs were used for all downstream analysis. Tile regions were imaged for 24 h with 10 min intervals at 37 °C, 5% CO2. Analysis was performed using the MIPs of the different full fields of cells over the 24–48 h time period. Mitosis and mitosis arrest were classified through a combination of automated image analysis and manual validation. […] Small erroneous detected spots were further removed through a manually adjusted size filter. […] The mean intensity of all tracks was then measured to determine mitosis and mitosis arrest. […]"}, "MDA-MB-231 cells": {"system": "MDA-MB-231 cells", "assay": "Lattice light sheet imaging of mitosis, MDA-MB-231", "type": "cell-based, human", "conditions": "15 µM", "procedure": "as §1"}, "MiaPaca2 cells": {"system": "MiaPaca2 cells", "assay": "Colony formation assay, MiaPaca2", "type": "cell-based, human", "conditions": "10 µM, 7–12 days", "procedure": "Cells were seeded at low density (200–4000 cells per well) after initial optimisation in a six-well tissue culture-treated plate (Falcon). Twenty-four hours post seeding, media was replaced, and the inhibitor was added. Cells were left to grow into colonies between 7 and 12 days, depending on the cell line. For analysis, the media was removed, and the cells were fixed with 10% (w/v) formalin for 10 min. Colonies were stained with crystal violet (Sigma-Aldrich, 0.5% [w/v] in 20% [v/v] MeOH) for 10 min and washed thrice with distilled H2O. Plates were imaged using the ChemiDoc imaging system (Bio-Rad) and analysed using the ImageJ ColonyArea plugin as described previously (Guzmán et al, [2014])."}, "[1]": {"system": "T1, USP9X Δβ catalytic domain", "T1 construct": "His/SUMO (pOPIN-S vector) (N, cleaved yes); made in house; host or cells: E. coli BL21", "assay": "Ub-PA suicide probe assay, USP9X Δβ", "type": "biochemical, human", "conditions": "50 µM compound", "from_the_text": "An expression construct for the USP9X catalytic domain (aa 1551–1970, […]: Q93008-1), was codon optimised for bacterial expression, synthesised in gBlock format (Integrated DNA Technologies) and cloned into the pOPIN-S vector (Berrow et al, [2007]), which was digested with KpnI and HindIII using In-Fusion™ HD cloning (Takara Clontech). For SPR, constructs were ordered with a GGS linker followed by a C-terminal AviTag™ (aa sequence: […]) and were cloned as above. For the USP9X Δβ catalytic domain a deletion construct ΔE1924-K1943 and for USP9X/USP24 chimera, a construct with USP9X Y1757-A1766 replaced with the USP24 (NCBI Reference Sequence: NP_056121) aa motif […] was used. All constructs were confirmed by Sanger sequencing (AGRF).\nFor inhibitor activity assays, USP9X catalytic domain (di-ubiquitin cleavage assay: 750 nM, ubiquitin-probe assays: 2.5 µM) was pre-incubated with USP9X inhibitors for 30 min at ambient temperature and subsequently mixed with di-ubiquitin (final concentration 2 µM) in assay buffer (25 mM Tris [pH 8.0], 150 mM NaCl, 10 mM DTT) at pH 8.0 or was mixed with ubiquitin-propargylamide (Ub-PA)/ubiquitin-vinyl sulfonate (Ub-VS) probes at a final concentration of 10 µM in assay buffer. […]"}, "USP9X catalytic domain [2]": {"target": "T2, USP9X catalytic domain (Homo sapiens, UniProt Q93008)", "T2 construct": "His/SUMO (pOPIN-S vector) (N, cleaved yes); made in house; host or cells: E. coli BL21", "T2 sequence (Q93008 1551-1970)": "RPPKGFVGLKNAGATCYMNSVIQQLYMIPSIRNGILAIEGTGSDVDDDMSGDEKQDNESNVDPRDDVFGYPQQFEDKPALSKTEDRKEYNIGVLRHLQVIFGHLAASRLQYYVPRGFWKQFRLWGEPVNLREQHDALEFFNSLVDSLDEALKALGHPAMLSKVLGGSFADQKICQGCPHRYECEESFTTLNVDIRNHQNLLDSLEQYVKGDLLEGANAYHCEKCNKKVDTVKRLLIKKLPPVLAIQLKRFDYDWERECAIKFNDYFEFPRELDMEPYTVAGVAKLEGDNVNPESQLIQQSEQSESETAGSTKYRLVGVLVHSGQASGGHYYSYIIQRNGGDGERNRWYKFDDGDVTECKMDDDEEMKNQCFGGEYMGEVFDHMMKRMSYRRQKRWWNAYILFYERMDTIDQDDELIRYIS", "assay": "HDX-MS", "type": "binding", "conditions": "6 s deuterium exchange; 80 µM WEHI-092 or 30 µM FT709", "experimental": "Deuterium labelling of USP9X catalytic domain was performed as described previously (Asadollahi et al, [2023]) at 20 °C for periods of 0, 6, 60, 6000 s using a PAL Dual Head HDX Automation manager (Trajan/LEAP) controlled by the ChronosHDX software. […] Quenching was performed by adding 50 µL of the protein mix to 50 µL of quench buffer (50 mM potassium phosphate buffer [pH 2.3], 4 M guanidine hydrochloride and 0.1% [v/v] n-dodecylphosphocholine) at 1 °C. […] To further reduce peptide carryover, n-octyl-β-d-glucopyranoside at 1% (w/w) was added to the pepsin column wash solution (1.5 M guanidine hydrochloride, 4% [v/v] acetonitrile [ACN], 0.8% [v/v] FA). […] For MS, an ion mobility equipped SYNAPT G2-Si mass spectrometer (Waters) was used. Instrument settings were: 3.0 KV capillary and 40 V sampling cone with source and desolvation temperatures of 100 °C and 40 °C, respectively. The desolvation and cone gas flow were at 80 L/h and 100 L/h, respectively. High-energy ramp trap collision energy was from 20 to 40 V. All mass spectra were acquired using a 0.4 s scan time with continuous lock mass (Leu-Enk, 556.2771 m/z) for mass accuracy correction. […] The deuterium uptake values were calculated for each peptide using DynamX 3.0 (Waters). […]"}, "USP9X catalytic domain [3]": {"target": "T2, USP9X catalytic domain", "assay": "Ub-PA suicide probe competition assay", "type": "biochemical", "conditions": "50 µM compound, WT catalytic domain", "procedure": "For inhibitor activity assays, USP9X catalytic domain (di-ubiquitin cleavage assay: 750 nM, ubiquitin-probe assays: 2.5 µM) was pre-incubated with USP9X inhibitors for 30 min at ambient temperature and subsequently mixed with di-ubiquitin (final concentration 2 µM) in assay buffer (25 mM Tris [pH 8.0], 150 mM NaCl, 10 mM DTT) at pH 8.0 or was mixed with ubiquitin-propargylamide (Ub-PA)/ubiquitin-vinyl sulfonate (Ub-VS) probes at a final concentration of 10 µM in assay buffer. For both assays, the mixture was incubated over a time course, and the reaction was stopped by mixing samples with 2× LDS sample buffer (Invitrogen) supplemented with 3% (v/v) 2-mercaptoethanol. All protein samples were run on a 4–12% Bis-Tris SDS-PAGE gradient gel (Invitrogen) for 60 min at 140 V. The gel was stained with InstantBlue® (Abcam) and imaged."}, "USP9X catalytic domain [4]": {"target": "T2, USP9X catalytic domain", "assay": "Ub-Rho cleavage assay", "type": "biochemical", "conditions": "relative to WEHI-553", "procedure": "The reaction was stopped through the addition of 10 mM citric acid. The assay was performed in 384-well format with a total reaction volume of 16 µL. Data was collected using the ClarioSTAR plate reader (BMG Labtech) at an emission of 535 nm. […] IC50 values presented in our study are the mean of three independent biological repeats unless indicated otherwise."}},
  "note": "“Also recorded” adds a separate entry of the source.",
  "data": [
    {"compound": "Cc1[nH]c2ccc(C(=O)N3CCN(S(=O)(=O)c4ccc5c(c4)OCCO5)CC3)cc2c1C", "note": "[WEHI-092]", "values": [
      {"measurement": "cell growth, MOLT-4", "setting": "MOLT-4 cells", "value": "stalling cell growth completely"},
      {"measurement": "arrested mitosis phenotype, UO-31", "setting": "UO-31 cells", "value": "did not display the arrested mitosis phenotype"},
      {"measurement": "apoptosis on metaphase arrest (Annexin V uptake), MDA-MB-231", "setting": "MDA-MB-231 cells", "value": "did not trigger apoptosis"},
      {"measurement": "cell division phenotype, MDA-MB-231", "setting": "MDA-MB-231 cells; imaged 24-48 h", "value": "significant defects in cell division"},
      {"measurement": "clonogenic potential, MiaPaca2", "setting": "MiaPaca2 cells", "value": "strong decrease in proliferative capacity"},
      {"measurement": "modification of USP9X Δβ with Ub-PA probe", "setting": "[1]", "value": "unable to be modified by the probe"},
      {"measurement": "changes in hydrogen-deuterium uptake upon compound binding", "setting": "USP9X catalytic domain [2]", "value": "protection of five overlapping peptides that included residues 1757-1762"},
      {"measurement": "modification of USP9X with Ub-PA probe", "setting": "USP9X catalytic domain [3]", "value": "prevented the modification of USP9X with ubiquitin propargylamide; also recorded: unable to be modified by the probe"},
      {"measurement": "improvement of IC50 towards USP9X by SAR", "setting": "USP9X catalytic domain [4]", "value": "> 16", "unit": "fold"}
    ]}
  ]
}
